Test results taken from patent US11000535B2, “Anticancer composition and use thereof” (KAOHSIUNG MEDICAL UNIVERSITY, priority 2015, dated 2021).

What was measured:
GNMT = GNMT mRNA and protein expression in Huh7 cells (qPCR, immunoblot); format: cell-based, human
Procedure: (§1) RNA was prepared by using Tri Reagent (Sigma-Aldrich, St Louis, Mo., USA) and was reverse transcribed into cDNA using a Super Script II Reverse Transcriptase Kit (Invitrogen Inc., Carlsbad, Calif., USA).
(§2) PCR was performed on an ABI StepOne Plus System (Applied Biosystems, Foster City, Calif., USA) using the LightCycler® First Start DNA Master SYBR Green I reagent (Roche Diagnostics, Basel, Switzerland). The mRNA level was normalized using the TATA-box binding protein (TBP) mRNA level as the standard.
The following primers were used: GNMT forward, 5′-ACTGGATGACT CTGGACAA-3′ (SEQ ID NO. 3) and reverse, 5′-ACTGAGGATGTGGTCGT-3′(SEQ ID NO. 4); TBP forward, 5′-[…]-3′ (SEQ ID NO. 5) and reverse, 5′-[…]-3′(SEQ ID NO. 6); c-Myc forward, […](SEQ ID NO. 7) and reverse, […](SEQ ID NO. 8).
Cells or xenograft tumors were harvested with RIPA lysis buffer (50 mM Tris (pH 7.5), 150 mM NaCl, 1% Triton X-100, 0.1% sodium dodecyl sulfate (SDS), 0.5% sodium deoxycholate, supplemented with protease and phosphatase inhibitors (1 mM Phenylmethanesulfonyl Fluoride (PMSF), […], […] Tosyllysine Chloromethyl Ketone (TLCK), […] Tosyl phenylalanyl chloromethyl ketone (TPCK), […] aprotinin, 1 mM sodium fluoride (NaF), 5 mM sodium pyrophosphate (NaPPi) and 10 mM sodium orthovanadate (Na3VO4).
Protein lysates were quantified and separated on SDS-PAGE gel, and immunoblotting was carried out.
The following antibodies were used: anti-GNMT (14-1, YMAC Bio Tech, Taiwan), anti-caspase-3 (9H19L2, Thermo Scientific) and anti-actin (AC-15, Sigma-Aldrich).

caspase 3/7 = assay: Caspase 3/7 activity assay; format: cell-based, human; details: Huh7 cells, 12 hours
Procedure: Please refer to FIG. 24, which illustrates PGG induced caspase 3/7 activity in Huh7 cells.
Huh7 cells were plated in 96-well plate and treated with solvent or PGG for 12 h. To measure caspase-3 and caspase-7 activation, the Apo-ONE® Homogeneous Caspase-3/7 assay was performed according to the Promega Technical Bulletin-Apo-ONE® Homogeneous Caspase-3/7 assay.

c-Myc = c-Myc expression in xenograft tumors; format: in vivo, mice; details: FIG. 34 c-Myc/actin (PGG); FIG. 35 mRNA (F3-6 25 and 300 mpk)
Procedure: Please refer to FIGS. 34-35. FIG. 34 illustrates c-Myc/actin expression ratio in the tumor after treatments, wherein the numeral 1 is for the solvent, and the numeral 2 is for PGG. FIG. 35 illustrates c-Myc in RNA expression in the tumor after treatments, wherein the numeral 1 is for the solvent, the numeral 2 is for F3-6 (25 mpk), and the numeral 3 is for F3-6 (300 mpk).
as §1, §2
The following primers were used: GNMT forward, 5′-ACTGGATGACT CTGGACAA-3′ (SEQ ID NO. 3) and reverse, 5′-ACTGAGGATGTGGTCGT-3′(SEQ ID NO. 4); TBP forward, 5′-[…]-3′ (SEQ ID NO. 5) and reverse, 5′-[…]-3′(SEQ ID NO. 6); c-Myc forward, […](SEQ ID NO. 7) and reverse, […](SEQ ID NO. 8). […]

increase in caspase 3/7 activity (caspase 3/7): five-fold
Compound: O=C(OC[C@H]1O[C@@H](OC(=O)c2cc(O)c(O)c(O)c2)[C@H](OC(=O)c2cc(O)c(O)c(O)c2)[C@@H](OC(=O)c2cc(O)c(O)c(O)c2)[C@@H]1OC(=O)c1cc(O)c(O)c(O)c1)c1cc(O)c(O)c(O)c1 [PGG, 1,2,3,4,6-penta-O-galloyl-β-D-glucopyranoside]
GNMT mRNA expression (GNMT; 0.1 mg/ml, Huh7 cells): induced GNMT mRNA expression | GNMT protein expression (GNMT; 0.1 mg/ml, Huh7 cells): induced GNMT protein expression | time of optimal induced effect on GNMT (GNMT; after administration, qPCR and immunoblot): 48 h | expression of c-Myc in the tumor xenograft mice (c-Myc): lowers the expression of c-Myc
